From patent publication US20060025481A1, “Process for preparation of probucol derivatives and polymorphic forms thereof” (priority 2004, published 2006)
One block for each molecule: values may come before it.

Experiments:
[1] = Hygroscopicity of the crystalline polymorphic forms; assay type: physicochemical; conditions: crystalline solid form
[2] = cited from earlier work
[3] = Solid-state stability of the polymorphic forms

hygroscopicity [1]: nonhygroscopic
Compound: CC(C)(Sc1cc(C(C)(C)C)c(O)c(C(C)(C)C)c1)Sc1cc(C(C)(C)C)c(OCC(=O)O)c(C(C)(C)C)c1 [Form A]

Compound: CC(C)(Sc1cc(C(C)(C)C)c(O)c(C(C)(C)C)c1)Sc1cc(C(C)(C)C)c(O)c(C(C)(C)C)c1 [probucol, 4,4′-(isopropylidenedithio) bis[2,6-di-tert-butylphenol]]
solubility in water [2]: minimally soluble in water

Compound: CCC(Oc1c(C(C)(C)C)cc(SC(C)(C)Sc2cc(C(C)(C)C)c(O)c(C(C)(C)C)c2)cc1C(C)(C)C)C(=O)O (stereo not drawn) [Form Al]
stability of polymorphic form [3]: acceptable stability
